Data as given in patent US12702660B2, “Method for treating cancer with an oral dosage form of an estrogen receptor-alpha inhibitor” (Eisai R&D Management Co., Ltd., priority 2019, dated 2026).

Tests used:
[1] = Plasma PK of capsules vs tablets in healthy human subjects, relative bioavailability; format: in vivo; conditions: capsules and tablets
Method: Blood samples were collected at the planned time points from each patient and centrifuged. The plasma portion of each sample was then transferred to a K2EDTA tube, which was then shipped to a bioanalytical lab for concentration measurement using LC-MS/MS. The concentration data were then analyzed using Phoenix® WinNonlin software to obtain PK parameters. The obtained PK parameters were further summarized using analytical software.
Blood samples (approximately 5 mL each) were collected from human patients pre-dose and at various hourly time points post-dose. Plasma concentrations of H3B-6545 were determined using a validated high-performance liquid chromatography/tandem mass spectrometry (LC-MS/MS) method. The lower limit of quantification was 0.100 ng/mL.
The PK Analysis Set included subjects who received H3B-6545 drug product in capsules or tablets and had sufficient evaluable plasma concentration data to derive at least 1 primary PK parameter in each treatment. […]
Pharmacokinetic parameters of H3B-6545 were calculated using noncompartmental methods, using an appropriate model for plasma data and extravascular administration. The PK parameters included, but were not limited to, area under the curve to the time of the last quantifiable concentration (AUC0-t), maximum concentration (Cmax), and time at which the maximum concentration occurred (tmax). […]

Ki67 = assay: Pharmacodynamics: Ki67 levels post-treatment; format: in vivo, human; conditions: across all dose levels post-treatment
Method: (§1) Methods were used to analyze whether H3B-6545 inactivates both wild-type and mutant ERα by targeting cysteine 530 and enforcing a unique antagonist conformation. Methods: Women with locally advanced or metastatic HR+BC are treated (tx) with H3B-6545 drug product administered once daily orally by capsule over a 28 day cycle after progression on at least one hormonal therapy and at least one additional therapy/regimen. Dose escalation uses a 3+3 design with the option to backfill previously cleared doses and allows for intrapatient dose escalation. This example explored the safety, pharmacokinetics and pharmacodynamics of H3B-6545 in women with HR+BC to identify a recommended subsequent dose for testing.

[2] = Safety: treatment-related adverse events and dose-limiting toxicities, phase 1 dose escalation; format: in vivo, human
Text: Example 3 reports Clinical and Genomics Analysis of a single trial. The Study Population in Example 3 was as follows: • Women ≥18 years old with locally advanced or metastatic ER+HER2−BC. • Progression on at least one hormonal therapy and at least one additional therapy/regimen; no maximum number of prior lines of therapy. • ECOG performance status of 0 or 1. • Adequate bone marrow and organ function. • Excluded if had bone-only disease or inflammatory BC.
as §1
• H3B-6545 administered once daily orally over a 28 day cycle. • Dose escalation using a standard 3+3 study design using dose cohorts of 100, 200, 300, 450, and 600 mg QD. • Patients allowed to backfill previously cleared doses. • Intra-patient dose escalation allowed after completion of Cycle 3. […]

[3] = Plasma PK of H3B-6545 capsules in fasted patients, phase 1 dose escalation; format: in vivo, human; conditions: 100 to 450 mg; as of 10 Dec. 2018
[4] = 100 mg QD (N = 6), as of Apr. 20, 2019
[5] = 200 mg QD (N = 12), as of Apr. 20, 2019
[6] = 300 mg QD (N = 11), as of Apr. 20, 2019
[7] = 450 mg QD (N = 10), as of Apr. 20, 2019
[8] = 600 mg QD (N = 7), as of Apr. 20, 2019
[9] = Total (N = 46), 100 to 600 mg QD, as of Apr. 20, 2019
[10] = as of Apr. 20, 2019, 100 to 600 mg QD

SMILES: CN(C)C(=O)/C=C/CNCCOc1ccc(/C(=C(/CC(F)(F)F)c2ccccc2)c2ccc3[nH]nc(F)c3c2)cn1 [H3B-6545, (E)-N,N-dimethyl-4-[2-[5-[(Z)-4,4,4-trifluoro-1-(3-fluoro-1H-indazol-5-yl)-2-phenylbut-1-enyl]pyridin-2-yl]oxyethylamino]but-2-enamide]
- tolerability [1]: well-tolerated
- decrease in Ki67 levels (Ki67): 50%
- Subjects with any TRAE [2, 4]: 4
- TRAE Anaemia, subjects [2, 4]: 0
- TRAE Aspartate aminotransferase increased, subjects [2, 4]: 0
- TRAE Diarrhoea, subjects [2, 4]: 1
- TRAE Fatigue, subjects [2, 4]: 1
- TRAE Nausea, subjects [2, 4]: 1
- TRAE Sinus bradycardia, subjects [2, 4]: 0
- Subjects with any TRAE [2, 5]: 6
- TRAE Anaemia, subjects [2, 5]: 1
- TRAE Aspartate aminotransferase increased, subjects [2, 5]: 1
- TRAE Diarrhoea, subjects [2, 5]: 1
- TRAE Fatigue, subjects [2, 5]: 2
- TRAE Nausea, subjects [2, 5]: 0
- TRAE Sinus bradycardia, subjects [2, 5]: 2
- Subjects with any TRAE [2, 6]: 9
- TRAE Anaemia, subjects [2, 6]: 2
- TRAE Aspartate aminotransferase increased, subjects [2, 6]: 1
- TRAE Diarrhoea, subjects [2, 6]: 2
- TRAE Fatigue, subjects [2, 6]: 3
- TRAE Nausea, subjects [2, 6]: 3
- TRAE Sinus bradycardia, subjects [2, 6]: 7
- Subjects with any TRAE [2, 7]: 9
- TRAE Anaemia, subjects [2, 7]: 3
- TRAE Aspartate aminotransferase increased, subjects [2, 7]: 1
- TRAE Diarrhoea, subjects [2, 7]: 3
- TRAE Fatigue, subjects [2, 7]: 1
- TRAE Nausea, subjects [2, 7]: 4
- TRAE Sinus bradycardia, subjects [2, 7]: 3
- Subjects with any TRAE [2, 8]: 5
- TRAE Anaemia, subjects [2, 8]: 1
- TRAE Aspartate aminotransferase increased, subjects [2, 8]: 2
- TRAE Diarrhoea, subjects [2, 8]: 0
- TRAE Fatigue, subjects [2, 8]: 1
- TRAE Nausea, subjects [2, 8]: 1
- TRAE Sinus bradycardia, subjects [2, 8]: 0
- dose-limiting toxicity (DLT)s, number ([2]; 600 mg QD cohort, Grade 3 fatigue and Grade 3 rash morbilliform, as of Apr. 20, 2019): Two
- sinus bradycardia, dose or concentration dependence ([2]; 46 patients, 100 to 600 mg QD): does not appear to be dose- or concentration-dependent
- TRAEs ≥Grade 4 ([2]; 46 patients, 100 to 600 mg QD, as of Apr. 20, 2019): no TRAEs ≥Grade 4
- Grade 3 TRAEs, number ([2]; 46 patients, 100 to 600 mg QD, two at 450 mg, four at 600 mg, as of Apr. 20, 2019): Six
- Subjects with any TRAE [2, 9]: 33
- TRAE Anaemia, subjects [2, 9]: 7
- TRAE Aspartate aminotransferase increased, subjects [2, 9]: 5
- TRAE Diarrhoea, subjects [2, 9]: 7
- TRAE Fatigue, subjects [2, 9]: 8
- TRAE Nausea, subjects [2, 9]: 9
- TRAE Sinus bradycardia, subjects [2, 9]: 12
- dose-limiting toxicities ([2]; as of 10 Dec. 2018, 32 patients, 100 to 450 mg/day): No dose-limiting toxicities
- Grade 3 treatment related adverse events (TRAE), number ([2]; as of 10 Dec. 2018, 32 patients, 100 to 450 mg/day, lymphocyte count decrease): one
- tolerability ([2]; as of 10 Dec. 2018, H3B-6545 drug product): well-tolerated up to the 450 mg dose level
- grade of TRAEs [2, 10]: Most TRAEs were grade 1 or 2 and manageable
- tolerated dose [2, 10]: tolerated up to and including 450 mg QD
- plasma concentration versus dose [3]: increased with dose
